ChEMBL document CHEMBL4804281, “STK4 inhibitors for treatment of hematologic malignancies” (2020)

How the values were obtained:
[1] = target: Mitogen-activated protein kinase kinase kinase kinase 4 (Homo sapiens) (UniProt O95819); assay: Inhibition of HGK in human NCI-H929 cells at 10 uM by mass spectroscopic analysis relative to control; assay type: cell-based
[2] = target: Mitogen-activated protein kinase 10 (Homo sapiens) (UniProt P53779); assay: Inhibition of JNK3 in human NCI-H929 cells at 10 uM by mass spectroscopic analysis relative to control; assay type: cell-based
[3] = target: PRKCI, protein kinase C iota (Homo sapiens) (UniProt P41743); assay: Inhibition of PKCi in human NCI-H929 cells at 10 uM by mass spectroscopic analysis relative to control
[4] = target: Tyrosine-protein kinase Fyn (Homo sapiens) (UniProt P06241); assay: Inhibition of FYN in human NCI-H929 cells at 10 uM by mass spectroscopic analysis relative to control; assay type: cell-based
[5] = target: Serine/threonine-protein kinase WNK3 (Homo sapiens) (UniProt Q9BYP7); assay: Inhibition of WNK3 in human NCI-H929 cells at 10 uM by mass spectroscopic analysis relative to control; assay type: cell-based
[6] = target: Mitogen-activated protein kinase 8 (Homo sapiens) (UniProt P45983); assay: Inhibition of JNK1 in human NCI-H929 cells at 10 uM by mass spectroscopic analysis relative to control; assay type: cell-based
[7] = target: T1, Kinase suppressor of Ras 1 (Homo sapiens) (UniProt Q8IVT5); assay: Inhibition of KSR1 in human NCI-H929 cells at 10 uM by mass spectroscopic analysis relative to control; assay type: cell-based
T1 sequence (whole entry): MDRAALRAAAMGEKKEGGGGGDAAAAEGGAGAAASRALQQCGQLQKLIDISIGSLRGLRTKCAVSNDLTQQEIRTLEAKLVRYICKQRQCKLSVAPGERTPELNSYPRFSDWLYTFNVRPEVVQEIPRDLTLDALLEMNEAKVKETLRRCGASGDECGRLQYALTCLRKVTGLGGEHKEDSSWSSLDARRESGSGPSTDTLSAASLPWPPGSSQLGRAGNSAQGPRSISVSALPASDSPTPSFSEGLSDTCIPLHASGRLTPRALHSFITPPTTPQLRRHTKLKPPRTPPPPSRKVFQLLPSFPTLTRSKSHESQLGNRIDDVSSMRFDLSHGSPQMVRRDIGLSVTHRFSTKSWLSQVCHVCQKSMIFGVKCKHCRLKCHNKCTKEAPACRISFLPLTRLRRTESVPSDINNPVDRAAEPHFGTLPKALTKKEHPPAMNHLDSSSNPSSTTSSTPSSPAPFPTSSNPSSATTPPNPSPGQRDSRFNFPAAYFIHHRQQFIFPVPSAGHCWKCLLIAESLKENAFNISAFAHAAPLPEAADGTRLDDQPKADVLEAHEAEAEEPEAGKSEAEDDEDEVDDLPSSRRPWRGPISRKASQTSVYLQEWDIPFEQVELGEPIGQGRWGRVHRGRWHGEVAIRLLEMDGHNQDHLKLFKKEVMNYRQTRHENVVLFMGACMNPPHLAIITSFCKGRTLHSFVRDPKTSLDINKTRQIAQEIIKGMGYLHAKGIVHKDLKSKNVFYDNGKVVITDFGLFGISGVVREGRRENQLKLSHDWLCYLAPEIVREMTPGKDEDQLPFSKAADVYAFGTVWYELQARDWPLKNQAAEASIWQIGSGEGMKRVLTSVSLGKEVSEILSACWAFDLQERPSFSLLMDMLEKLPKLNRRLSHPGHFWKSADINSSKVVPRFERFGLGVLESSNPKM

[8] = target: T2, Kinase suppressor of Ras 2 (Homo sapiens) (UniProt Q6VAB6); assay: Inhibition of KSR2 in human NCI-H929 cells at 10 uM by mass spectroscopic analysis relative to control; assay type: cell-based
T2 sequence (whole entry): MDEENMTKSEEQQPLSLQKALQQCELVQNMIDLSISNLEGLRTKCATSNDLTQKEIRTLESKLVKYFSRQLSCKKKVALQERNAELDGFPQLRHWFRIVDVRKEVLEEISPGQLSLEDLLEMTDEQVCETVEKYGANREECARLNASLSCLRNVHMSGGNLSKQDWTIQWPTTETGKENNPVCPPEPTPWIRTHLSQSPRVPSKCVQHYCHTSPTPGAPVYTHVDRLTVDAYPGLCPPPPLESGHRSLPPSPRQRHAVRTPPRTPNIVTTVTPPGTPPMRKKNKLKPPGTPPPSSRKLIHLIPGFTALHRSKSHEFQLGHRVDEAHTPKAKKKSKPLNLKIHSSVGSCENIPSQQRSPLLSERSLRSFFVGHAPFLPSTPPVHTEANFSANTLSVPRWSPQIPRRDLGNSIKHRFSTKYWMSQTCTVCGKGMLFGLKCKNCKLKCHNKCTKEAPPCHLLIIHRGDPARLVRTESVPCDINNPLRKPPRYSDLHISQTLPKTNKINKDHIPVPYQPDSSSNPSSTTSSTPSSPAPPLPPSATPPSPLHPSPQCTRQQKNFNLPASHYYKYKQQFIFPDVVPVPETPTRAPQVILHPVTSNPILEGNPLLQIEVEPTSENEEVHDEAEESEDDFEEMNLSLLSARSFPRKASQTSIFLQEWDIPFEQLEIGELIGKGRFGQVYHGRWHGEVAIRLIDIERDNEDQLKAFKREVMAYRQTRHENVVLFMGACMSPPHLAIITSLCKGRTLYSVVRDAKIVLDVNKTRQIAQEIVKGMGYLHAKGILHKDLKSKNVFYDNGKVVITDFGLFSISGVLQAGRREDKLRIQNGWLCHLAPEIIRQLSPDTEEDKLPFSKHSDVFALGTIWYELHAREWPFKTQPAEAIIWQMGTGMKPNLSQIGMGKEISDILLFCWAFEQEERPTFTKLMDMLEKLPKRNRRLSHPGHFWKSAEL

Mitogen-activated protein kinase 8 (Homo sapiens), sequence (P45983 whole entry): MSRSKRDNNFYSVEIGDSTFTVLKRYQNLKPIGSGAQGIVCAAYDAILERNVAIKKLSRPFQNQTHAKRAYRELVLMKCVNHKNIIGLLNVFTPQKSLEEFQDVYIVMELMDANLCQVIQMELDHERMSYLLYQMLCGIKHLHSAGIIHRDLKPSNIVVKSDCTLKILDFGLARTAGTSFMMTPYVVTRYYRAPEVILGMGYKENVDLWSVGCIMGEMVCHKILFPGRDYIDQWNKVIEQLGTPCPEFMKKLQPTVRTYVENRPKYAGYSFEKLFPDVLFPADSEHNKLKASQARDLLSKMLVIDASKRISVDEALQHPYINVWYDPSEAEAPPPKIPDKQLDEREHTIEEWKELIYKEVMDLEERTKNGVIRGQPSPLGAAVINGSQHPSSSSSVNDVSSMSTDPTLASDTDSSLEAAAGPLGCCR
Tyrosine-protein kinase Fyn (Homo sapiens), sequence (P06241 2-537 limits assumed): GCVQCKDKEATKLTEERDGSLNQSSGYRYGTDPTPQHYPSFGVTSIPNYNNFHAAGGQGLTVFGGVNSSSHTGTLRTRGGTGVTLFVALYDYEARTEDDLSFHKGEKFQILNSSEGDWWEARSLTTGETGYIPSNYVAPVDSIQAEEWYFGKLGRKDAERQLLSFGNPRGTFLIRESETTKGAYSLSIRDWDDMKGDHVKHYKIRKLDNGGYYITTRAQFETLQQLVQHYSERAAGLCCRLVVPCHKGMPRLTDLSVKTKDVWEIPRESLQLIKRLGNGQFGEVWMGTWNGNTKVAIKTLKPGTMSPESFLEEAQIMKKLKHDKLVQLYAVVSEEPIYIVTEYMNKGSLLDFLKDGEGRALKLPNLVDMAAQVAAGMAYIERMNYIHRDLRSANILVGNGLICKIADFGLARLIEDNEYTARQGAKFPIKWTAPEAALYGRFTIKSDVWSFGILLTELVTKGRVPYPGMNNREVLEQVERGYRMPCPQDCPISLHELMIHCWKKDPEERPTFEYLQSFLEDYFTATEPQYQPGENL
Mitogen-activated protein kinase kinase kinase kinase 4 (Homo sapiens), sequence (O95819 2-1239 limits assumed): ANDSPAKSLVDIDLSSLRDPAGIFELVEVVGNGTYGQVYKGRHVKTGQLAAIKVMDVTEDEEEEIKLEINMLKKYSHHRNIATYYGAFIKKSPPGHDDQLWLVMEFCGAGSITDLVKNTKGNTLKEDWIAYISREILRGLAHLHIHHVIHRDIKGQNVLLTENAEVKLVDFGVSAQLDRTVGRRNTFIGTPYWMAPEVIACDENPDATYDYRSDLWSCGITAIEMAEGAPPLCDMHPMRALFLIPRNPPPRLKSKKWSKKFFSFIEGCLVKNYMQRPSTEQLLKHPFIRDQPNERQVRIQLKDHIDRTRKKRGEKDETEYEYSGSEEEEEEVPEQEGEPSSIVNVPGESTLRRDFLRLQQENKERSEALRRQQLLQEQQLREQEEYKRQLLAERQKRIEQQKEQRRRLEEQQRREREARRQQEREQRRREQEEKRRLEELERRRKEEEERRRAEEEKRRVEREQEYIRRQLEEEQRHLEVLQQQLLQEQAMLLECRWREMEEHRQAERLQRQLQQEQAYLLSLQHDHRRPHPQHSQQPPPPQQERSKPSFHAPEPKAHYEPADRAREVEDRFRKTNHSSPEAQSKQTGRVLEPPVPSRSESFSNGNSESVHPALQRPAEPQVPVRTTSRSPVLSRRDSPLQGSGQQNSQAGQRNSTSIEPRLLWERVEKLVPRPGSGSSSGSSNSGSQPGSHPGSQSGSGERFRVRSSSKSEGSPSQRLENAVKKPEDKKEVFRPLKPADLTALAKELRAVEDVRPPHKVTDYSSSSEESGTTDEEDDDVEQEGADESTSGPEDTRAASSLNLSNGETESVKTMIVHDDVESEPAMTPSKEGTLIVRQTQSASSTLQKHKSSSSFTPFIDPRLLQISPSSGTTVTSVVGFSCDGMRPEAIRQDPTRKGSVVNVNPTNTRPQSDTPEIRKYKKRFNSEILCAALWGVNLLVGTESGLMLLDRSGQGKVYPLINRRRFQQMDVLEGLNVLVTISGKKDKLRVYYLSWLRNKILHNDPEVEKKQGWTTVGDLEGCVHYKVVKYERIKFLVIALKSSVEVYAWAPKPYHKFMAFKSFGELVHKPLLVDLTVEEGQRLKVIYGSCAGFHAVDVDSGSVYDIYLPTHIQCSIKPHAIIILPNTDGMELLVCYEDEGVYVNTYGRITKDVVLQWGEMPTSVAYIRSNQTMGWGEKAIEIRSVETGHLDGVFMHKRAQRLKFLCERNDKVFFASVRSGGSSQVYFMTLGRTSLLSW
Serine/threonine-protein kinase WNK3 (Homo sapiens), sequence (Q9BYP7 whole entry): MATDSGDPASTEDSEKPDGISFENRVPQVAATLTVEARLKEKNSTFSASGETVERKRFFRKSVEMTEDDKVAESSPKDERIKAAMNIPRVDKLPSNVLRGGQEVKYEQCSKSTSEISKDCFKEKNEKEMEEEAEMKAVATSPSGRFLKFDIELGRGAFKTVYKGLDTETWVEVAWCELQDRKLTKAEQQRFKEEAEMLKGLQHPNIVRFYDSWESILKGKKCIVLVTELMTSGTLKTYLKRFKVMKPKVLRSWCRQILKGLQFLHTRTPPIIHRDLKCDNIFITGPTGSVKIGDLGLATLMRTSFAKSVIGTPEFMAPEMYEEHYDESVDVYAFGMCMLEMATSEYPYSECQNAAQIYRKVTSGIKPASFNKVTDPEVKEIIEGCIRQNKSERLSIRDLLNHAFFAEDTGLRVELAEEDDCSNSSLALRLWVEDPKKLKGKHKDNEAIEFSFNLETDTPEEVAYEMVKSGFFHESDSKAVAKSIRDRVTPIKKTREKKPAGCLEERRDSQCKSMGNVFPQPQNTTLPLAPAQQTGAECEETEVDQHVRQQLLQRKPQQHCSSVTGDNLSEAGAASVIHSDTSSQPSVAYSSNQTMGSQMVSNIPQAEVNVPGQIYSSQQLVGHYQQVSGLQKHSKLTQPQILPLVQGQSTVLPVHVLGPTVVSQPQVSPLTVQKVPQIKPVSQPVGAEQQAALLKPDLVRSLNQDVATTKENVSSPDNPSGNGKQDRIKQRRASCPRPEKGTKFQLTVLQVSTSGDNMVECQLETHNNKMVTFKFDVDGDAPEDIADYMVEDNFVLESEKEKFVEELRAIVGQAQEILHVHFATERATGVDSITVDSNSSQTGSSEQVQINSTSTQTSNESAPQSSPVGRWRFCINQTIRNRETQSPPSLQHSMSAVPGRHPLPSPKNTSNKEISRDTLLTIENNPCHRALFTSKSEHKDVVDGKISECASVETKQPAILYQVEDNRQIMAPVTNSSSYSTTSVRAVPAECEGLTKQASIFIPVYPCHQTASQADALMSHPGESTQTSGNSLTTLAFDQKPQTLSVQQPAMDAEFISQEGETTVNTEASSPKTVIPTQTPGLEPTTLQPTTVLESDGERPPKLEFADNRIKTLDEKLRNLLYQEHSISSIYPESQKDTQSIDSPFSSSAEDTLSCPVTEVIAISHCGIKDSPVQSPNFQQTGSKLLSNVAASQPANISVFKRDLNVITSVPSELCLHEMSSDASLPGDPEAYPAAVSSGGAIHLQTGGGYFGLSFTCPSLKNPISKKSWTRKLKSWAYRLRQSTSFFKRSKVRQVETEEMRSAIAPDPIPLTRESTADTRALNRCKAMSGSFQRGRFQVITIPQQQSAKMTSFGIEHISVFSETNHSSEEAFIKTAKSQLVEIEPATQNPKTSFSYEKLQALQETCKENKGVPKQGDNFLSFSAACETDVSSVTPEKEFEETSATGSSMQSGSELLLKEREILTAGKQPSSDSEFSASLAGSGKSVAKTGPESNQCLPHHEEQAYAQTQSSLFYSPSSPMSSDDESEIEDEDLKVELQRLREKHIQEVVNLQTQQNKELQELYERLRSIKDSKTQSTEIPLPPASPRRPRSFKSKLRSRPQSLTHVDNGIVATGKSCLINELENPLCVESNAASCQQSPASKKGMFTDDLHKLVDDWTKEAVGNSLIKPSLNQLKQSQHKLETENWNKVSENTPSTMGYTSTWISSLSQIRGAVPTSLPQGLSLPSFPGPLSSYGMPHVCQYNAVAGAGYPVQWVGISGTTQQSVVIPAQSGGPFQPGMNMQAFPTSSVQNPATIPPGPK
Mitogen-activated protein kinase 10 (Homo sapiens), sequence (P53779 whole entry): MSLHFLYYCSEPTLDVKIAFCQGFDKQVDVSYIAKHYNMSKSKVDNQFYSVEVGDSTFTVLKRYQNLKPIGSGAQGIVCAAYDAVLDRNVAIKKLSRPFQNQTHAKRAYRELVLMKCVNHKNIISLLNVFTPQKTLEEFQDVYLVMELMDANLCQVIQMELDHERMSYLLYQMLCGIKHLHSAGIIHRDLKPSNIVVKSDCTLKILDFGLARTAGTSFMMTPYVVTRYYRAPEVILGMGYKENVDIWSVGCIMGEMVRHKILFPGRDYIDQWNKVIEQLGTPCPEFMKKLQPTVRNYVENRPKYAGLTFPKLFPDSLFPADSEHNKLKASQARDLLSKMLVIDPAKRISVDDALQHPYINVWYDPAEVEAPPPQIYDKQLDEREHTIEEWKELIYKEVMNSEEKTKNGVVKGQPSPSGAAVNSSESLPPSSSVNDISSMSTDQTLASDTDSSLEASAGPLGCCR
PRKCI, protein kinase C iota (Homo sapiens), sequence (P41743 whole entry, looked up): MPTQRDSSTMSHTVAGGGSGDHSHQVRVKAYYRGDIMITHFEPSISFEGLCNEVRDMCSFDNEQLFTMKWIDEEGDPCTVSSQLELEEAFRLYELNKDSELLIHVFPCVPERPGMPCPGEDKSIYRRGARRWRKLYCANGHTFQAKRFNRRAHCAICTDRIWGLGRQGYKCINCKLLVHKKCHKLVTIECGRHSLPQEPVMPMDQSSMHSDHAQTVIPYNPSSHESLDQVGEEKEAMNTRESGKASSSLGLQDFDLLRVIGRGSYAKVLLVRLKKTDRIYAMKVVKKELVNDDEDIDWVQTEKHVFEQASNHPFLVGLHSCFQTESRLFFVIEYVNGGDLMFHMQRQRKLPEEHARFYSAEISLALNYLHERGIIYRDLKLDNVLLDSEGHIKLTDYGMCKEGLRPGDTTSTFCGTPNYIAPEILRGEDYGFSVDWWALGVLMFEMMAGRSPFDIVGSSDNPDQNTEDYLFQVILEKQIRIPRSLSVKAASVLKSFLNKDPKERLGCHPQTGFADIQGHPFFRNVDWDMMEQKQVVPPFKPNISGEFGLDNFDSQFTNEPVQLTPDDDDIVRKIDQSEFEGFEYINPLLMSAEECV

| Compound | inhibition [1] [%] | inhibition [2] [%] | inhibition [3] [%] | inhibition [4] [%] | inhibition [5] [%] | inhibition [6] [%] | inhibition [7] [%] | inhibition [8] [%] |
| --- | --- | --- | --- | --- | --- | --- | --- | --- |
| Nc1ncc(-c2cccc([N+](=O)[O-])c2F)cc1-c1ccc2c(c1)CCNC2=O | > 90 | 0 | 0 | 0 | > 100 | 0 | 0 | 0 |
| Nc1ncc(-c2ccc(NS(=O)(=O)C3CC3)cc2F)cc1-c1ccc2c(c1)CCNC2=O | > 90 | 0 | 0 | 0 | 0 | 0 | 0 | 0 |
| CN(C1CC1)S(=O)(=O)c1ccc(-c2cnc(N)c(-c3ccc4c(c3)CCNC4=O)c2)c(F)c1 | > 90 | 0 | 0 | 0 | 0 | 0 | 0 | 0 |
| Nc1ncc(-c2cccc3ncsc23)cc1-c1ccc2c(c1)CCNC2=O | > 90 | 0 | 0 | 0 | 0 | 0 | 0 | 0 |
| COc1cc(NS(=O)(=O)C2CC2)ccc1-c1cnc(N)c(-c2ccc3c(c2)CCNC3=O)c1 | > 90 | 75 | 0 | 0 | 0 | 0 | 0 | 0 |
| Nc1ncc(-c2ccc(NS(=O)(=O)C3CC3)cc2OC2CCCCC2)cc1-c1ccc2c(c1)CCNC2=O | > 90 | 0 | 0 | 0 | 0 | 0 | 0 | 0 |
